Usually Ki stands for the dissociation constant of the complex between target and ligand, obtained from inhibition or displacement. Low values mean tighter binding, high ones weaker binding.

The text below walks through data of patent US20250122225A1, “MASP-2 INHIBITORS AND METHODS OF USE” (Omeros Corporation, priority 2023, published 2025).

One experiment addresses T1, human α-thrombin (Homo sapiens, UniProt P00734).
T1 construct: enzyme (human α-thrombin (BioPharm® Lab.)) in assay buffer; purchased BioPharm® Lab
The experiment can be described thus: Enzymatic assay for thrombin (fluorogenic peptide substrate Boc-VPR-AMC). It counts as biochemical. The method in brief:
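Assay conditions kept the reaction linear in time, enzyme and substrate, so IC50 approximated Ki apart from tight- or slow-binding cases. Boc-VPR-AMC cleavage by human α-thrombin proceeded 20 min at room temperature in Hepes pH 7.4/NaCl/Tween 20 buffer, then was acid-quenched and read by fluorescence.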

Another experiment has as its target T2, MASP-2 (CCP1-CCP2-SP) (Homo sapiens, UniProt O00187).
T2 construct: 15 μL of Enzyme MASP-2 (CCP1-CCP2-SP) in Assay Buffer
Nature of the experiment: Enzymatic assay for MASP-2 inhibitory activity (fluorogenic substrate). It counts as biochemical. The procedure, abridged:
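Fluorescence was normalized between no-enzyme and DMSO-only controls to derive % activity, with IC50 taken as equivalent to Ki except for tight-binding inhibitors. Reactions ran 20 min at room temperature in HEPES pH 7.4/NaCl/Tween 20 buffer, using the C2-derived fluorogenic substrate, before acetic acid stop.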

Structures can show the parent of a compound that is named as a salt.

T2 sequence (O00187 445-686 limits assumed): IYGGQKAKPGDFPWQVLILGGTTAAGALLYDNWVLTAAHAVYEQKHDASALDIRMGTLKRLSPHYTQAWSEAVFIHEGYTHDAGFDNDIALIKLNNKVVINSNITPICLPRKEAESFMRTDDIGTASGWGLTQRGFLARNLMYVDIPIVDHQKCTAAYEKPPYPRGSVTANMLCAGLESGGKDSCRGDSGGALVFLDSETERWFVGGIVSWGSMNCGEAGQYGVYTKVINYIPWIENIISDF
T2 sequence (O00187 287-444 partner limits assumed): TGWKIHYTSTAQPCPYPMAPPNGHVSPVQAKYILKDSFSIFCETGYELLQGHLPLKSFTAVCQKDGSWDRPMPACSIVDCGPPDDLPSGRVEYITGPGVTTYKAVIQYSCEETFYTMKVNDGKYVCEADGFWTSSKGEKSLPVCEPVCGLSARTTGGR

As to `O=C(NCc1cc2c(s1)CNC2)[C@@H]1CCc2cnc(NC3(c4ccccc4)CCC3)c(=O)n21` [Compound 261, (S)-N-((5,6-dihydro-4H-thieno[2,3-c]pyrrol-2-yl)methyl)-4-oxo-3-((1-phenylcyclobutyl)amino)-4,6,7,8-tetrahydropyrrolo[1,2-a]pyrazine-6-carboxamide trifluoroacetate], the Ki on human α-thrombin and at MASP-2 (CCP1-CCP2-SP) was less than 500 nM throughout.
Consider `CCc1cc(CNc2ncc3n(c2=O)[C@H](C(=O)NCc2cc4c(s2)CNC4)CC3)cc(-c2ccccc2)c1` [Compound 262], for which the inhibition constant (Ki) on human α-thrombin is 500 to 2500 nM; at MASP-2 (CCP1-CCP2-SP) it was less than 500 nM.
Regarding `CC[C@@H](Nc1ncc2n(c1=O)[C@H](C(=O)NCc1cc3c(s1)CNC3)CC2)c1ccc2ccccc2c1` [Compound 263, (S)-N-((5,6-dihydro-4H-thieno[2,3-c]pyrrol-2-yl)methyl)-3-(((R)-1-(naphthalen-2-yl)propyl)amino)-4-oxo-4,6,7,8-tetrahydropyrrolo[1,2-a]pyrazine-6-carboxamide trifluoroacetate], the Ki on human α-thrombin is 500 to 2500 nM; at MASP-2 (CCP1-CCP2-SP), less than 500 nM.
With `CC(C)(C)[C@@H](Nc1ncc2n(c1=O)[C@H](C(=O)NCc1cc3c(s1)CNC3)CC2)c1ccccc1` [Compound 264, (S)-N-((5,6-dihydro-4H-thieno[2,3-c]pyrrol-2-yl)methyl)-3-(((R)-2,2-dimethyl-1-phenylpropyl)amino)-4-oxo-4,6,7,8-tetrahydropyrrolo[1,2-a]pyrazine-6-carboxamide trifluoroacetate], the Ki at human α-thrombin and on MASP-2 (CCP1-CCP2-SP) was less than 500 nM throughout.
With `CC[C@@H](Nc1ncc2n(c1=O)[C@H](C(=O)NCc1cc3c(s1)CNC3)CC2)c1ccccc1C` [Compound 265, (S)-N-((5,6-dihydro-4H-thieno[2,3-c]pyrrol-2-yl)methyl)-4-oxo-3-(((R)-1-(o-tolyl)propyl)amino)-4,6,7,8-tetrahydropyrrolo[1,2-a]pyrazine-6-carboxamide trifluoroacetate], the Ki on human α-thrombin and on MASP-2 (CCP1-CCP2-SP) was less than 500 nM throughout.
`CC[C@@H](Nc1ncc2n(c1=O)[C@H](C(=O)NCc1cc3c(s1)CNC3)CC2)c1ccc(C)cc1` [Compound 266, (S)-N-((5,6-dihydro-4H-thieno[2,3-c]pyrrol-2-yl)methyl)-4-oxo-3-(((R)-1-(p-tolyl)propyl)amino)-4,6,7,8-tetrahydropyrrolo[1,2-a]pyrazine-6-carboxamide trifluoroacetate]: the Ki on human α-thrombin and at MASP-2 (CCP1-CCP2-SP) was less than 500 nM throughout.
Regarding `CC[C@@H](Nc1ncc2n(c1=O)[C@H](C(=O)NCc1cc3c(s1)CNC3)CC2)c1cccc(-c2ccccc2)c1` [Compound 267, (S)-3-(((R)-1-([1,1'-biphenyl]-3-yl)propyl)amino)-N-((5,6-dihydro-4H-thieno[2,3-c]pyrrol-2-yl)methyl)-4-oxo-4,6,7,8-tetrahydropyrrolo[1,2-a]pyrazine-6-carboxamide trifluoroacetate], the Ki was 500 to 2500 nM on human α-thrombin and less than 500 nM on MASP-2 (CCP1-CCP2-SP).
Consider `CCc1cccc([C@@H](CC)Nc2ncc3n(c2=O)[C@H](C(=O)NCc2cc4c(s2)CNC4)CC3)c1` [Compound 268, (S)-N-((5,6-dihydro-4H-thieno[2,3-c]pyrrol-2-yl)methyl)-3-(((R)-1-(3-ethylphenyl)propyl)amino)-4-oxo-4,6,7,8-tetrahydropyrrolo[1,2-a]pyrazine-6-carboxamide trifluoroacetate], for which the Ki at human α-thrombin and at MASP-2 (CCP1-CCP2-SP) was less than 500 nM throughout.
Consider `C[C@@H](NC(=O)[C@@H]1CCc2cnc(N[C@@H](c3ccccc3)C(C)(C)C)c(=O)n21)c1cc2c(s1)CNC2` [Compound 269, (S)-N-((R)-1-(5,6-dihydro-4H-thieno[2,3-c]pyrrol-2-yl)ethyl)-3-(((R)-2,2-dimethyl-1-phenylpropyl)amino)-4-oxo-4,6,7,8-tetrahydropyrrolo[1,2-a]pyrazine-6-carboxamide trifluoroacetate], for which the Ki was 2500 to 10000 nM on human α-thrombin and less than 500 nM at MASP-2 (CCP1-CCP2-SP).
For `C[C@H](NC(=O)[C@@H]1CCc2cnc(N[C@@H](c3ccccc3)C(C)(C)C)c(=O)n21)c1cc2c(s1)CNC2` [Compound 270, (S)-N-((S)-1-(5,6-dihydro-4H-thieno[2,3-c]pyrrol-2-yl)ethyl)-3-(((R)-2,2-dimethyl-1-phenylpropyl)amino)-4-oxo-4,6,7,8-tetrahydropyrrolo[1,2-a]pyrazine-6-carboxamide trifluoroacetate] the same measures were 10000 to 25000 nM and 2500 to 10000 nM.
For `O=C(NCc1cc2c(s1)CNC2)[C@@H]1CCc2cnc(NCC3(c4ccccc4)CCC3)c(=O)n21` [Compound 271, (S)-N-((5,6-dihydro-4H-thieno[2,3-c]pyrrol-2-yl)methyl)-4-oxo-3-(((1-phenylcyclobutyl)methyl)amino)-4,6,7,8-tetrahydropyrrolo[1,2-a]pyrazine-6-carboxamide trifluoroacetate] the same measures were less than 500 nM and less than 500 nM.
In the case of `C[C@@H](NC(=O)[C@@H]1CCc2cnc(N[C@@H](c3ccccc3)C3CC3)c(=O)n21)c1cc2c(s1)CNC2` [Compound 272, (S)-3-(((R)-cyclopropyl(phenyl)methyl)amino)-N-((R)-1-(5,6-dihydro-4H-thieno[2,3-c]pyrrol-2-yl)ethyl)-4-oxo-4,6,7,8-tetrahydropyrrolo[1,2-a]pyrazine-6-carboxamide trifluoroacetate], the Ki on human α-thrombin was 2500 to 10000 nM; at MASP-2 (CCP1-CCP2-SP) it was less than 500 nM.
On the same counts, the results for `C[C@H](NC(=O)[C@@H]1CCc2cnc(N[C@@H](c3ccccc3)C3CC3)c(=O)n21)c1cc2c(s1)CNC2` [Compound 273, (S)-3-(((R)-cyclopropyl(phenyl)methyl)amino)-N-((S)-1-(5,6-dihydro-4H-thieno[2,3-c]pyrrol-2-yl)ethyl)-4-oxo-4,6,7,8-tetrahydropyrrolo[1,2-a]pyrazine-6-carboxamide trifluoroacetate] are greater than 25000 nM and 2500 to 10000 nM.
On the same counts, the results for `CC(C)[C@@H](Nc1ncc2n(c1=O)[C@H](C(=O)N[C@H](C)c1cc3c(s1)CNC3)CC2)c1ccccc1` [Compound 274, (S)-N-((R)-1-(5,6-dihydro-4H-thieno[2,3-c]pyrrol-2-yl)ethyl)-3-(((R)-2-methyl-1-phenylpropyl)amino)-4-oxo-4,6,7,8-tetrahydropyrrolo[1,2-a]pyrazine-6-carboxamide trifluoroacetate] are 500 to 2500 nM and less than 500 nM.
Regarding `CC(C)[C@@H](Nc1ncc2n(c1=O)[C@H](C(=O)N[C@@H](C)c1cc3c(s1)CNC3)CC2)c1ccccc1` [Compound 275, (S)-N-((S)-1-(5,6-dihydro-4H-thieno[2,3-c]pyrrol-2-yl)ethyl)-3-(((R)-2-methyl-1-phenylpropyl)amino)-4-oxo-4,6,7,8-tetrahydropyrrolo[1,2-a]pyrazine-6-carboxamide trifluoroacetate], the Ki was greater than 25000 nM on human α-thrombin and less than 500 nM on MASP-2 (CCP1-CCP2-SP).
For the compound `CC[C@@H](Nc1ncc2n(c1=O)[C@H](C(=O)N[C@@H](C)c1cc3c(s1)CNC3)CC2)c1ccccc1` [Compound 278], the figures for the Ki at human α-thrombin and on MASP-2 (CCP1-CCP2-SP) were 10000 to 25000 nM and less than 500 nM, respectively.
On the same counts, the results for `O=C(NCc1cc2c(s1)CNC2)[C@@H]1CCc2cnc(N[C@@H](c3ccccc3)C3CCCC3)c(=O)n21` [Compound 279, (S)-3-(((R)-cyclopentyl(phenyl)methyl)amino)-N-((5,6-dihydro-4H-thieno[2,3-c]pyrrol-2-yl)methyl)-4-oxo-4,6,7,8-tetrahydropyrrolo[1,2-a]pyrazine-6-carboxamide] are less than 500 nM and less than 500 nM.
For `CC(C)(C)[C@@H](Nc1ncc2n(c1=O)[C@H](C(=O)NCc1cc3c(s1)CNC3)CC2)c1ccc(F)cc1` [Compound 280, (S)—N-((5,6-dihydro-4H-thieno[2,3-c]pyrrol-2-yl)methyl)-3-(((R)-1-(4-fluorophenyl)-2,2-dimethylpropyl)amino)-4-oxo-4,6,7,8-tetrahydropyrrolo[1,2-a]pyrazine-6-carboxamide] the same measures were less than 500 nM and less than 500 nM.
On the same counts, the results for `Cc1cc(C)cc(CNc2ncc3n(c2=O)[C@H](C(=O)NCc2ccc4[nH]ncc4c2)CC3)c1` [Compound 281, (S)—N-((1H-indazol-5-yl)methyl)-3-((3,5-dimethylbenzyl)amino)-4-oxo-4,6,7,8-tetrahydropyrrolo[1,2-a]pyrazine-6-carboxamide] are 500 to 2500 nM and less than 500 nM.
Take `Cc1cc(C)cc(CNc2ncc3n(c2=O)[C@H](C(=O)NCc2cccc4[nH]ncc24)CC3)c1` [Compound 282, (S)-N-((1H-indazol-4-yl)methyl)-3-((3,5-dimethylbenzyl)amino)-4-oxo-4,6,7,8-tetrahydropyrrolo[1,2-a]pyrazine-6-carboxamide]: the Ki lay in the range of 2500 to 10000 nM on human α-thrombin and 500 to 2500 nM on MASP-2 (CCP1-CCP2-SP).
On the same counts, the results for `Cc1cc(C)cc(CNc2ncc3n(c2=O)[C@H](C(=O)NCc2cc(Cl)ccc2-n2cnnn2)CC3)c1` [Compound 284, (S)-N-(5-chloro-2-(1H-tetrazol-1-yl)benzyl)-3-((3,5-dimethylbenzyl)amino)-4-oxo-4,6,7,8-tetrahydropyrrolo[1,2-a]pyrazine-6-carboxamide] are less than 500 nM and less than 500 nM.
On the same counts, the results for `O=C(NCc1cc2c(s1)CNC2)[C@@H]1CCc2cnc(NCc3cccc(-c4ccccc4)c3)c(=O)n21` [Compound 285, (S)-3-(([1,1′-biphenyl]-3-ylmethyl)amino)-N-((5,6-dihydro-4H-thieno[2,3-c]pyrrol-2-yl)methyl)-4-oxo-4,6,7,8-tetrahydropyrrolo[1,2-a]pyrazine-6-carboxamide trifluoroacetate] are 500 to 2500 nM and less than 500 nM.
